Legend:
Format in all cases: in vivo
[1] = test system: Wheat (Triticum aestivum); test: Post-emergence foliar spray of monocotyledons, wheat; details: foliar spray 2.8 kg/ha, 14 days, 0=no effect, 100=complete kill
Method: (§1) Seeds of the monocotyledon species listed below were sown in anodised aluminium pans, 19 cm long×9.5 cm wide×5.0 cm deep, containing John Innes I potting compost. They were then watered and placed in a controlled environment room (22° C.; 65-85% relative humidity; 14 hours per day artificial illumination at 17,000 lux). 14 days after sowing, the seedlings were given a foliar spray of the compound of Example 44, formulated as an aqueous suspension together with 2000 ppm of the wetting agent Lissapol NX. The dosage rate was adjusted to be 2.8 kg active ingredient in 450 liters per hectare. After a further 14 days in the controlled environment room, the plants were visually assessed for any growth regulatory or herbicidal effect. All differences from an untreated control were scored on a scale from 0-100 where 0 signifies no effect and 100 signifies complete kill.
(§2) The compounds listed below were tested according to the procedure of Example 66 but including rice (Oryza sativa) as an additional test species.

Barley (Hordeum vulgare) = test: Post-emergence foliar spray of monocotyledons, barley; details: foliar spray 2.8 kg/ha, 14 days, 0=no effect, 100=complete kill
Method: as §1, §2

[2] = test system: Barnyardgrass (Echinochloa crus-galli); test: Post-emergence foliar spray of monocotyledons, barnyardgrass; details: foliar spray 2.8 kg/ha, 14 days, 0=no effect, 100=complete kill
Method: as §1, §2

rice (Oryza sativa) = test: Post-emergence foliar spray of monocotyledons, rice; details: foliar spray 2.8 kg/ha, 14 days, 0=no effect, 100=complete kill
Method: as §1, §2

Cotton [3] = test: Soil incorporation (I), cotton; details: 21 days, 0=no effect, 100=complete suppression
Source text: (§3) Each of the compounds listed below was formulated as: […]
(§4) (I) an attaclay/sand dust and incorporated in John Innes I potting compost at a rate equivalent to 6.5 and 3.25 parts per million weight/volume of active ingredient to soil and placed in anodised aluminium pans, 19 cm long×9.5 cm wide×5.0 cm high. This is approximately equivalent to a surface application of 2.8 and 1.4 kg active ingredient per hectare cultivated to a depth of 5 cm. Seeds of the species listed below were sown in the treated soil, one species per pan, watered and placed in a controlled environment room (22° C.; 65-85% relative humidity and 14 hours artificial illumination at 17,000 lux) for 21 days.
(§5) The plants were then visually assessed for any growth regulatory or herbicidal effects. All differences from an untreated control were scored on a scale from 0-100, where 0 signifies no effect and 100 signifies complete suppression.
(§6) The results are shown in the following table where I stands for soil incorporation and II for surface spray.

Tomato [4] = test: Soil incorporation (I), tomato; details: 21 days, 0=no effect, 100=complete suppression
Source text: as §3, §4, §5, §6

Wheat [5] = test: Soil incorporation (I), wheat; details: 21 days, 0=no effect, 100=complete suppression
Source text: as §3, §4, §5, §6

Barley [6] = test: Soil incorporation (I), barley; details: 21 days, 0=no effect, 100=complete suppression
Source text: as §3, §4, §5, §6

Barnyard Grass [7] = test: Soil incorporation (I), barnyard grass; details: 21 days, 0=no effect, 100=complete suppression
Source text: as §3, §4, §5, §6

Rice [8] = test: Soil incorporation (I), rice; details: 21 days, 0=no effect, 100=complete suppression
Source text: as §3, §4, §5, §6

Carrot [9] = test: Soil incorporation (I), carrot; details: 21 days, 0=no effect, 100=complete suppression
Source text: as §3, §4, §5, §6

Cotton [10] = test: Surface spray (II), cotton; details: 21 days, 0=no effect, 100=complete suppression
Source text: as §3
(§7) (II) An aqueous suspension together with 1000 ppm of the wetting agent Lissapol NX. The surfaces of an additional set of pans with seeds already sown were then sprayed with 2.8 or 1.4 kg/ha in 450 liters/hectare, and the pans kept in the controlled environment room for 21 days.
as §5, §6

Tomato [11] = test: Surface spray (II), tomato; details: 21 days, 0=no effect, 100=complete suppression
Source text: as §3, §7, §5, §6

Wheat [12] = test: Surface spray (II), wheat; details: 21 days, 0=no effect, 100=complete suppression
Source text: as §3, §7, §5, §6

Barley [13] = test: Surface spray (II), barley; details: 21 days, 0=no effect, 100=complete suppression
Source text: as §3, §7, §5, §6

Barnyard Grass [14] = test: Surface spray (II), barnyard grass; details: 21 days, 0=no effect, 100=complete suppression
Source text: as §3, §7, §5, §6

Rice [15] = test: Surface spray (II), rice; details: 21 days, 0=no effect, 100=complete suppression
Source text: as §3, §7, §5, §6

Carrot [16] = test: Surface spray (II), carrot; details: 21 days, 0=no effect, 100=complete suppression
Source text: as §3, §7, §5, §6

SMILES | growth regulatory or herbicidal effect score [1] | growth regulatory or herbicidal effect score (Barley (Hordeum vulgare)) | growth regulatory or herbicidal effect score [2] | growth regulatory or herbicidal effect score (rice (Oryza sativa)) | growth regulatory or herbicidal effect score (Cotton [3]; I soil incorporation 3.25 ppm) | growth regulatory or herbicidal effect score (Cotton [3]; I soil incorporation 6.5 ppm) | growth regulatory or herbicidal effect score (Tomato [4]; I soil incorporation 3.25 ppm) | growth regulatory or herbicidal effect score (Tomato [4]; I soil incorporation 6.5 ppm) | growth regulatory or herbicidal effect score (Wheat [5]; I soil incorporation 3.25 ppm) | growth regulatory or herbicidal effect score (Wheat [5]; I soil incorporation 6.5 ppm) | growth regulatory or herbicidal effect score (Barley [6]; I soil incorporation 3.25 ppm) | growth regulatory or herbicidal effect score (Barley [6]; I soil incorporation 6.5 ppm) | growth regulatory or herbicidal effect score (Barnyard Grass [7]; I soil incorporation 3.25 ppm) | growth regulatory or herbicidal effect score (Barnyard Grass [7]; I soil incorporation 6.5 ppm) | growth regulatory or herbicidal effect score (Rice [8]; I soil incorporation 3.25 ppm) | growth regulatory or herbicidal effect score (Rice [8]; I soil incorporation 6.5 ppm) | growth regulatory or herbicidal effect score (Cotton [10]; row 3.25 ppm (1.4 kg/ha)) | growth regulatory or herbicidal effect score (Cotton [10]; row 6.5 ppm (2.8 kg/ha)) | growth regulatory or herbicidal effect score (Tomato [11]; row 3.25 ppm (1.4 kg/ha)) | growth regulatory or herbicidal effect score (Tomato [11]; row 6.5 ppm (2.8 kg/ha)) | also measured
CS(=O)(=O)N(CC(N)=S)c1ccc(Cl)c(Cl)c1 [Example 85, N-(thiocarbamoylmethyl)-3,4-dichloromethanesulphonanilide] | 0 | 0 | 90 | 0 | 0 | 0 | 0 | 0 | 0 | 0 | 0 | 0 | 90 | 90 | 0 | 0 | 0 | 0 | 0 | 0 | growth regulatory or herbicidal effect score (Carrot [9]; I soil incorporation 3.25 ppm): 0; growth regulatory or herbicidal effect score (Carrot [9]; I soil incorporation 6.5 ppm): 0; growth regulatory or herbicidal effect score (Wheat [12]; row 3.25 ppm (1.4 kg/ha)): 0; growth regulatory or herbicidal effect score (Wheat [12]; row 6.5 ppm (2.8 kg/ha)): 0; growth regulatory or herbicidal effect score (Barley [13]; row 3.25 ppm (1.4 kg/ha)): 0; growth regulatory or herbicidal effect score (Barley [13]; row 6.5 ppm (2.8 kg/ha)): 0; growth regulatory or herbicidal effect score (Barnyard Grass [14]; row 3.25 ppm (1.4 kg/ha)): 90; growth regulatory or herbicidal effect score (Barnyard Grass [14]; row 6.5 ppm (2.8 kg/ha)): 100; growth regulatory or herbicidal effect score (Rice [15]; row 3.25 ppm (1.4 kg/ha)): 0; growth regulatory or herbicidal effect score (Rice [15]; row 6.5 ppm (2.8 kg/ha)): 0; growth regulatory or herbicidal effect score (Carrot [16]; row 3.25 ppm (1.4 kg/ha)): 0; growth regulatory or herbicidal effect score (Carrot [16]; row 6.5 ppm (2.8 kg/ha)): 0
Cc1ccc(N(CC#N)S(C)(=O)=O)cc1Cl [Example 131] | 5 | 10 | 90 | 0 | 0 | 0 | 0 | 0 | 0 | 0 | 0 | 0 | 50 | 70 | 0 | 0 | 0 | 0 | 0 | 0 | growth regulatory or herbicidal effect score (Carrot [9]; I soil incorporation 3.25 ppm): 0; growth regulatory or herbicidal effect score (Carrot [9]; I soil incorporation 6.5 ppm): 0; growth regulatory or herbicidal effect score (Wheat [12]; row 3.25 ppm (1.4 kg/ha)): 0; growth regulatory or herbicidal effect score (Wheat [12]; row 6.5 ppm (2.8 kg/ha)): 0; growth regulatory or herbicidal effect score (Barley [13]; row 3.25 ppm (1.4 kg/ha)): 0; growth regulatory or herbicidal effect score (Barley [13]; row 6.5 ppm (2.8 kg/ha)): 0; growth regulatory or herbicidal effect score (Barnyard Grass [14]; row 3.25 ppm (1.4 kg/ha)): 60; growth regulatory or herbicidal effect score (Barnyard Grass [14]; row 6.5 ppm (2.8 kg/ha)): 80; growth regulatory or herbicidal effect score (Rice [15]; row 3.25 ppm (1.4 kg/ha)): 0; growth regulatory or herbicidal effect score (Rice [15]; row 6.5 ppm (2.8 kg/ha)): 0; growth regulatory or herbicidal effect score (Carrot [16]; row 3.25 ppm (1.4 kg/ha)): 0; growth regulatory or herbicidal effect score (Carrot [16]; row 6.5 ppm (2.8 kg/ha)): 0
CCS(=O)(=O)N(CC#N)c1ccc(Cl)c(Cl)c1 [Example 137] | 0 | 0 | 80 | 0 | 0 | 0 | 0 | 0 | 0 | 0 | 0 | 0 | 90 | 90 | 0 | 0 | 0 | 0 | 0 | 0 | growth regulatory or herbicidal effect score (Carrot [9]; I soil incorporation 3.25 ppm): 0; growth regulatory or herbicidal effect score (Carrot [9]; I soil incorporation 6.5 ppm): 0; growth regulatory or herbicidal effect score (Wheat [12]; row 3.25 ppm (1.4 kg/ha)): 0; growth regulatory or herbicidal effect score (Wheat [12]; row 6.5 ppm (2.8 kg/ha)): 0; growth regulatory or herbicidal effect score (Barley [13]; row 3.25 ppm (1.4 kg/ha)): 0; growth regulatory or herbicidal effect score (Barley [13]; row 6.5 ppm (2.8 kg/ha)): 0; growth regulatory or herbicidal effect score (Barnyard Grass [14]; row 3.25 ppm (1.4 kg/ha)): 90; growth regulatory or herbicidal effect score (Barnyard Grass [14]; row 6.5 ppm (2.8 kg/ha)): 100; growth regulatory or herbicidal effect score (Rice [15]; row 3.25 ppm (1.4 kg/ha)): 0; growth regulatory or herbicidal effect score (Rice [15]; row 6.5 ppm (2.8 kg/ha)): 0; growth regulatory or herbicidal effect score (Carrot [16]; row 3.25 ppm (1.4 kg/ha)): 0; growth regulatory or herbicidal effect score (Carrot [16]; row 6.5 ppm (2.8 kg/ha)): 0
Cc1ccc(N(CC(N)=S)S(C)(=O)=O)cc1Cl [Example 150] | 0 | 0 | 80 | 0 | 0 | 0 | 0 | 0 | 0 | 0 | 0 | 0 | 60 | 60 | 0 | 0 | 0 | 0 | 0 | 0 | growth regulatory or herbicidal effect score (Wheat [12]; row 3.25 ppm (1.4 kg/ha)): 0; growth regulatory or herbicidal effect score (Wheat [12]; row 6.5 ppm (2.8 kg/ha)): 0; growth regulatory or herbicidal effect score (Barley [13]; row 3.25 ppm (1.4 kg/ha)): 0; growth regulatory or herbicidal effect score (Barley [13]; row 6.5 ppm (2.8 kg/ha)): 0; growth regulatory or herbicidal effect score (Barnyard Grass [14]; row 3.25 ppm (1.4 kg/ha)): 50; growth regulatory or herbicidal effect score (Barnyard Grass [14]; row 6.5 ppm (2.8 kg/ha)): 70; growth regulatory or herbicidal effect score (Rice [15]; row 3.25 ppm (1.4 kg/ha)): 0; growth regulatory or herbicidal effect score (Rice [15]; row 6.5 ppm (2.8 kg/ha)): 0
CCS(=O)(=O)N(CC(N)=S)c1ccc(Cl)c(Cl)c1 [Example 156] | 0 | 0 | 90 | 0 | 0 | 0 | 0 | 0 | 0 | 0 | 0 | 0 | 70 | 90 | 0 | 0 | 0 | 0 | 0 | 0 | growth regulatory or herbicidal effect score (Wheat [12]; row 3.25 ppm (1.4 kg/ha)): 0; growth regulatory or herbicidal effect score (Wheat [12]; row 6.5 ppm (2.8 kg/ha)): 0; growth regulatory or herbicidal effect score (Barley [13]; row 3.25 ppm (1.4 kg/ha)): 0; growth regulatory or herbicidal effect score (Barley [13]; row 6.5 ppm (2.8 kg/ha)): 0; growth regulatory or herbicidal effect score (Barnyard Grass [14]; row 3.25 ppm (1.4 kg/ha)): 80; growth regulatory or herbicidal effect score (Barnyard Grass [14]; row 6.5 ppm (2.8 kg/ha)): 100; growth regulatory or herbicidal effect score (Rice [15]; row 3.25 ppm (1.4 kg/ha)): 0; growth regulatory or herbicidal effect score (Rice [15]; row 6.5 ppm (2.8 kg/ha)): 0
